The text below walks through data of patent US20260166160A1, “PROTACS TARGETING VIRAL ENZYMES FOR PRECISE TREATMENT OF COVID-19” (Ohio University, priority 2022, published 2026).

Molecules are shown by their SMILES. Read-outs that look alike come from different tables or passages of the source.

For test [1], the target named is Mpro (Severe acute respiratory syndrome coronavirus 2, UniProt P0DTD1). The test can be described thus: Mpro degradation in HEK293 cells stably expressing wild-type Mpro (tetracycline-inducible), Western Blot with anti-T7 antibodies. As to conditions: for remaining activity at 0.5 µM: HEK293, 24 h, read-out: Mpro (relative concentration). The class given is cell-based, SARS-CoV-2. The source says: To evaluate the degradation activity of MP-C-4N (initially, and additional PROTAC compounds later), a Mpro expression system was constructed in mammalian cells. A cell line stably expressing wild-type Mpro was constructed. According to the RNA sequence of wild-type Mpro, the corresponding DNA sequence was synthesized and codon-optimzied to be suitable for expression in HEK293 cells. After investigating the influence of different expression vectors and promoters on the protein expression level, pCW57.1-TetOn was selected as the expression vector, which contains a tetracycline-inducible promoter, and the target protein expression can be started or closed by controlling the content of tetracycline. With this cell line, the process of expressing MPro during virus infection in human cells was successfully simulated. This model was used to successfully test the degradation ability of candidate compounds on the target protein. Specifically, the cells were treated with doxycycline (1 μg/mL) for 12 h. After removing doxycycline, the cells were treated with PROTACs with indicated concentrations for 24 h and then harvested. The expression of Mpro was determined by Western Blot (WB) analysis using anti-T7 antibodies.

Test [2] concerns human coronavirus OC43 (HCoV-OC43). Kind of test: Anti-virus activity, HCoV-OC43 plaque formation in RD cells.
The mark [3] stands for this setting: compound at 500 nM, control 100%, Tables 1-3.
[4] abbreviates: Betacoronavirus 1, OC43, RD, RD cells infected with HCoV-OC43, 33° C., 4-5 days, plaque areas, Tables 7-11.

With `Cc1ccc(NC(=O)c2ccc(CN3CCN(C(=O)CCOCCOCCNc4cccc5c4C(=O)N(C4CCC(=O)NC4=O)C5=O)CC3)cc2)cc1Nc1nc(-c2cccnc2)cs1` (centres unmarked) [MP-19], the remaining activity at 0.5 µM in test [1] is 32%. The concentration for a half-maximal effect (EC50) in test [2] (Betacoronavirus 1, OC43, RD) came to 318 nM.
Regarding `Cc1ccc(NC(=O)c2ccc(CN3CCN(C(=O)CCOCCNc4cccc5c4C(=O)N(C4CCC(=O)NC4=O)C5=O)CC3)cc2)cc1Nc1nc(-c2cccnc2)cs1` (centres unmarked) [MP-18, 4-((4-(3-(2-((2-(2,6-dioxopiperidin-3-yl)-1,3-dioxoisoindolin-4-yl)amino)ethoxy)propanoyl)piperazin-1-yl)methyl)-N-(4-methyl-3-((4-(pyridin-3-yl)thiazol-2-yl)amino)phenyl)benzamide], in test [1], the remaining activity at 0.5 µM worked out at 45%. A half-maximal effect in test [2] (Betacoronavirus 1, OC43, RD) (EC50) was put at 336 nM.
Turning to `Cc1ccc(NC(=O)c2ccc(CN3CCN(C(=O)CCOCCOCCOCCOCCOCCNc4cccc5c4C(=O)N(C4CCC(=O)NC4=O)C5=O)CC3)cc2)cc1Nc1nc(-c2cccnc2)cs1` (centres unmarked) [MP-22], the remaining activity at 0.5 µM in test [1] turned out to be 75%. Moreover, in test [2] (Betacoronavirus 1, OC43, RD), the EC50 stood at 615 nM.
In the case of `Cc1ccc(NC(=O)c2ccc(CN3CCN(C(=O)CCOCCOCCOCCOCCNc4cccc5c4C(=O)N(C4CCC(=O)NC4=O)C5=O)CC3)cc2)cc1Nc1nc(-c2cccnc2)cs1` (centres unmarked) [MP-21], in test [1], the remaining activity at 0.5 µM is 52%. For the same compound, the EC50 in test [2] (Betacoronavirus 1, OC43, RD) is 480 nM.
Take `CC(C)C[C@H](NC(=O)[C@@H](NC(=O)[C@H](C)NC(=O)CCOCCOCCOCCNc1cccc2c1C(=O)N(C1CCC(=O)NC1=O)C2=O)C(C)C)C(=O)N[C@H](C#N)C[C@@H]1CCNC1=O` (some centres unmarked) [MP-41]: the remaining activity at 0.5 µM in test [1] (setting [3]) came to 45%. Also, in test [2] (setting [4]), the EC50 is 325 nM.
`CC(C)C[C@H](NC(=O)[C@@H](NC(=O)[C@H](C)NC(=O)CCOCCOCCOCCOCCNc1cccc2c1C(=O)N(C1CCC(=O)NC1=O)C2=O)C(C)C)C(=O)N[C@H](C#N)C[C@@H]1CCNC1=O` (some centres unmarked) [MP-42]: the remaining activity at 0.5 µM in test [1] (setting [3]) was 70%. For the same compound, the midpoint of the response in test [2] (setting [4]), the EC50, lay at 410 nM.
As to `CC(C)C[C@H](NC(=O)[C@@H](NC(=O)[C@H](C)NC(=O)CCOCCOCCNc1cccc2c1C(=O)N(C1CCC(=O)NC1=O)C2=O)C(C)C)C(=O)N[C@H](C#N)C[C@@H]1CCNC1=O` (some centres unmarked) [MP-39], the remaining activity at 0.5 µM in test [1] (setting [3]) worked out at 40%. Also, the EC50 in test [2] (setting [4]) stood at 235 nM.
Consider `O=C(CCOCCOCCOCCOCCNc1cccc2c1C(=O)N(C1CCC(=O)NC1=O)C2=O)NCCn1cc(NC(=O)c2c(Cl)cccc2Cl)c(C(=O)NC2CCNCC2)n1` (centres unmarked) [MP-31], for which the remaining activity at 0.5 µM in test [1] came to 65%. In test [2] (Betacoronavirus 1, OC43, RD), the EC50 worked out at 520 nM.
In the case of `O=C(CCOCCOCCOCCNc1cccc2c1C(=O)N(C1CCC(=O)NC1=O)C2=O)NCCn1cc(NC(=O)c2c(Cl)cccc2Cl)c(C(=O)NC2CCNCC2)n1` (centres unmarked) [MP-30], the remaining activity at 0.5 µM in test [1] was found to be 52%. In addition, a half-maximal response in test [2] (Betacoronavirus 1, OC43, RD) (EC50) required 435 nM.
Regarding `CC(C)C[C@H](NC(=O)[C@@H](NC(=O)[C@H](C)NC(=O)CCOCCOCCNc1cccc2c1C(=O)N(C1CCC(=O)NC1=O)C2=O)C(C)C)C(=O)N[C@H](C#N)C[C@@H]1CCNC1=O` (some centres unmarked) [MP-40], the “Mpro (relative concentration)” value in test [1] (setting [3]) is 25%. In test [2] (RD cells infected with HCoV-OC43, 33° C., 4-5 days, plaque areas, Tables 7-11), the EC50 amounted to 225 nM.
`CC(C)C1CCN(C(=O)[C@@H](NC(=O)[C@H](C)NC(=O)CCOCCOCCOCCNc2cccc3c2C(=O)N(C2CCC(=O)NC2=O)C3=O)C(C)(C)C)C1C(=O)N[C@H](C#N)CC1CCNC1=O` (some centres unmarked) [MP-C-4N]: the “concentration at which degradation of Mpro was detected” value in test [1] (WB, cells treated 24 h, FIG. 55) lay within 0.5 to 1.0 µM. In addition, the “concentration dependence of Mpro degradation activity” value in test [1] (WB, FIG. 55) is on record as “concentration-dependent”.
`O=C(CCOCCNc1cccc2c1C(=O)N(C1CCC(=O)NC1=O)C2=O)NCCn1cc(NC(=O)c2c(Cl)cccc2Cl)c(C(=O)NC2CCNCC2)n1` (centres unmarked) [MP-28, 4-(2,6-dichlorobenzamido)-1-(2-(3-(2-((2-(2,6-dioxopiperidin-3-yl)-1,3-dioxoisoindolin-4-yl)amino)ethoxy)propanamido)ethyl)-N-(piperidin-4-yl)-1H-pyrazole-3-carboxamide]: in test [1], the remaining activity at 0.5 µM was 33%. Moreover, the EC50 in test [2] (Betacoronavirus 1, OC43, RD) stood at 315 nM.
`CC(C)C[C@H](NC(=O)[C@@H](NC(=O)[C@H](C)NC(=O)CCOCCNc1cccc2c1C(=O)N(C1CCC(=O)NC1=O)C2=O)C(C)C)C(=O)N[C@H](C#N)C[C@@H]1CCNC1=O` (some centres unmarked) [MP-38]: in test [1] (setting [3]), the remaining activity at 0.5 µM was found to be 50%. Besides, the EC50 in test [2] (setting [4]) was determined as 380 nM.
On to `Cc1ccc(NC(=O)c2ccc(CN3CCN(C(=O)CCOCCOCCOCCNc4cccc5c4C(=O)N(C4CCC(=O)NC4=O)C5=O)CC3)cc2)cc1Nc1nc(-c2cccnc2)cs1` (centres unmarked) [MP-20], for which the remaining activity at 0.5 µM in test [1] was 28%. For the same compound, in test [2] (Betacoronavirus 1, OC43, RD), the EC50 was 310 nM.
On the same counts, the results for `O=C(CCOCCOCCOCCOCCOCCNc1cccc2c1C(=O)N(C1CCC(=O)NC1=O)C2=O)NCCn1cc(NC(=O)c2c(Cl)cccc2Cl)c(C(=O)NC2CCNCC2)n1` (centres unmarked) [MP-32] are 80% and 830 nM.
Take `O=C(CCOCCOCCNc1cccc2c1C(=O)N(C1CCC(=O)NC1=O)C2=O)NCCn1cc(NC(=O)c2c(Cl)cccc2Cl)c(C(=O)NC2CCNCC2)n1` (centres unmarked) [MP-29]: the remaining activity at 0.5 µM in test [1] was 40%. Also, the response in test [2] (Betacoronavirus 1, OC43, RD) was half-maximal at 380 nM (EC50).
